Assay results published in US5614504A, “Method of making inosine monophosphate derivatives and immunopotentiating uses thereof” (The University of South Florida, priority 1995, dated 1997).

How the values were obtained:
[1] = in vitro; assay type: in vitro ADME, Crotalus atrox; details: rattlesnake, pH 7.3; 0.02 units 5'-nucleotidase, 37° C., 10 minutes; four experiments; read-out: Hydrolysis (%)
Procedure: (§1) Nucleotide samples (40-60 nmoles) were incubated at 37° C. for 10 minutes with 0.02 units 5'-nucleotidase in a total volume of 100 μl containing […] HEPES, pH 7.3 and […] MgCl2. […] Phosphate was determined by the absorbance of 820 nm. Blanks consisting of nucleotide but no enzyme were tested in parallel to correct for non-enzymatic hydrolysis.

[2] = tested on: 5'-nucleotidase (from Crotalus atrox venom); assay: in vitro; assay type: in vitro ADME; details: in words
Procedure: as §1

[3] = tested on: human peripheral blood lymphocytes (HPBL); assay: Response of normal HPBL to PHA (tritiated thymidine incorporation); assay type: cell-based; details: 0.1-100 μg/ml; FIG. 1
Procedure: (§2) In vitro: Both human peripheral blood lymphocytes (HPBL) and mouse spleen lymphocytes (MSL) were employed. […] For HPBL transformation, PHA and PWM were used at 0.5 μg/ml. For MSL transformation, Con A was used at 0.5 μg/ml, phytohemagglutinin (PHA, Murex Diagnostics, Atlanta, Ga.) at 0.5 μg/ml and lipopolysaccharide endotoxin (LPS, Sigma, St. Louis, Mo.) at 10 μg/ml.
(§3) They were cultured in microwell plates at 1.5×10^6 cells/ml of minimal essential media (MEM, Gibco Labs, Grand Island, N.Y.) with 5% fetal calf serum (FCS, Hyclone Labs, Logan, Utah) and tested for their proliferative response to mitogens as measured by incorporation of (^3 H) tritiated thymidine (New England Nuclear, Wilmington Del., […]; 2.5 μCi/ml) during a terminal pulse followed by liquid scintillation spectrometry.

[4] = tested on: mouse spleen lymphocytes (MSL); assay: Mouse spleen lymphocyte proliferation to Con A; assay type: cell-based; details: 0.1, 1, 10, 100 μg/ml; Con A 0.5 μg/ml
Procedure: as §2, §3

[5] = tested on: spleen plaque antibody forming cells (PFC); assay: In vivo stimulation of PFC response to SRBC; design: species or system mice; details: for effect on PFC response: 50 mg/kg of body weight ip with SRBC, PFC five days later; for dose of optimal stimulation of PFC response: intraperitoneal
Procedure: Five days later, suspensions of spleen cells were prepared and their viability was determined by trypan blue exclusion test. Cells were suspended at 3×10^6 /ml. 0.2 ml of spleen cell suspension was mixed with 0.8 ml of 0.7% agarose and 0.2 ml of freshly washed SRBC (at 6×10^5 /ml). The mixture was immediately poured into the plate and allowed to solidify. After 60 minutes of incubation at 37° C. in a humid atmosphere of 5% CO2 in the air, the plate was flooded with 1 ml of guinea-pig complement diluted 1:5 with Hank's balanced saline. Hemolytic plaques were counted with an inverted scope using 4× magnification.
Spleen plaque antibody forming cells (PFC) were measured at the end of the five days.

[6] = tested on: influenza virus; assay type: in vivo, NMRI mice; details: Squalane alone
[7] = in man; cited from earlier work

Molecule | metabolised at 10 min [1] [%] | resistance to hydrolysis by 5'-nucleotidase [2] | relative activity on HPBL response to PHA [3] | proliferative responses of MSL to Con A [4] | effect on PFC response [5] | dose of optimal stimulation of PFC response [5] | effect on survival after influenza challenge [6] | half-life [7]
Nc1ncnc2c1ncn2[C@@H]1O[C@H](COP(=O)(O)O)[C@@H](O)[C@H]1O [Adenosine MP, adenosine-5'-monophosphate, reference compound] | 86 |  |  |  |  |  |  | 
N=C(N)NCCC[C@H](NP(=O)(O)OC[C@H]1O[C@@H](n2cnc3c(=O)[nH]cnc32)[C@H](O)[C@@H]1O)C(=O)O [Arg-IMP, Arginine-5'-inosine-monophosphate] | 12 | moderate | more active | stimulated the proliferative responses | significantly stimulated | 50 mg/kg of body weight |  | 
CCOP(=O)(O)OC[C@H]1O[C@@H](n2cnc3c(=O)[nH]cnc32)[C@H](O)[C@@H]1O [E-IMP, Ethyl-5'-inosine-monophosphate] | 2.9 | extremely resistant | more active | stimulated the proliferative responses |  |  |  | 
CC(CCCC(C)(C)O)NP(=O)(O)OC[C@H]1O[C@@H](n2cnc3c(=O)[nH]cnc32)[C@H](O)[C@@H]1O (stereo partly shown) [Ha-IMP, (Heptamin-1-ol)-5'-inosine-monophosphate] | 76 | mild | low | stimulated the proliferative responses | significantly stimulated | 50 mg/kg of body weight |  | 
CC(C)CCCC(C)CCCC(C)CCCCC(C)CCCC(C)CCCC(C)C (stereo not shown) [Squalane, reference compound] |  |  |  |  |  |  | no effect | 
isoprinosine |  |  |  |  |  |  |  | less than four
